Assay results published in ChEMBL document CHEMBL1150913, “Novel cytotoxic cembranoids from the soft coral Sinularia flexibilis” (1998).
≈ marks a conversion by molar mass, not a printed value.

tested on: HT-29; test: Cytotoxicity against human HT-29 cells after 6 days by MTT assay; assay type: functional; details: HT-29, 144 h, read-out: ED50 (the source's name)

**Q.** For `C/C1=C\CC[C@@](C)(O)[C@H]2C[C@H](CC[C@](C)(O)[C@H](O)CC1)[C@@H](C)C(=O)O2` [DIHYDROSINUFLEXOLIDE], which EC50 is on record?
**A.** 32.4 µg/mL (≈ 91.4 µM)

**Q.** How did the EC50 turn out when `C=C(C(=O)OC)[C@H]1CC[C@](C)(O)[C@H](O)CC/C(C)=C/CC[C@@](C)(O)[C@@H](O)C1` [SINUFLEXIBILIN] was run?
**A.** 0.22 µg/mL (≈ 0.572 µM)

**Q.** For `C=C1C(=O)O[C@@H]2C[C@@H]1CC[C@](C)(O)[C@H](O)CC/C(C)=C/CC[C@@]2(C)O` [SINUFLEXOLIDE], which EC50 is on record?
**A.** 0.39 µg/mL (≈ 1.11 µM)

tested on: P388; test: Cytotoxicity against mouse P388 cells after 3 days by MTT assay; assay type: functional; details: P388, 72 h, read-out: ED50 (the source's name)

**Q.** How did the EC50 turn out when `C/C1=C\CC[C@@](C)(O)[C@H]2C[C@H](CC[C@](C)(O)[C@H](O)CC1)[C@@H](C)C(=O)O2` [DIHYDROSINUFLEXOLIDE] was run?
**A.** 3.86 µg/mL (≈ 10.9 µM)

**Q.** `C=C(C(=O)OC)[C@H]1CC[C@](C)(O)[C@H](O)CC/C(C)=C/CC[C@@](C)(O)[C@@H](O)C1` [SINUFLEXIBILIN] was tested. Which EC50 did it give?
**A.** 0.27 µg/mL (≈ 0.702 µM)

**Q.** With `C=C1C(=O)O[C@@H]2C[C@@H]1CC[C@](C)(O)[C@H](O)CC/C(C)=C/CC[C@@]2(C)O` [SINUFLEXOLIDE] as the molecule, how does the EC50 read?
**A.** 0.16 µg/mL (≈ 0.454 µM)

tested on: A549; test: Cytotoxicity against human A549 cells after 6 days by MTT assay; assay type: functional; details: A549, 144 h, read-out: ED50 (the source's name)

**Q.** Which EC50 does the source give for `C/C1=C\CC[C@@](C)(O)[C@H]2C[C@H](CC[C@](C)(O)[C@H](O)CC1)[C@@H](C)C(=O)O2` [DIHYDROSINUFLEXOLIDE] here?
**A.** 16.8 µg/mL (≈ 47.4 µM)

**Q.** How did the EC50 turn out when `C=C(C(=O)OC)[C@H]1CC[C@](C)(O)[C@H](O)CC/C(C)=C/CC[C@@](C)(O)[C@@H](O)C1` [SINUFLEXIBILIN] was run?
**A.** 0.72 µg/mL (≈ 1.87 µM)

**Q.** `C=C1C(=O)O[C@@H]2C[C@@H]1CC[C@](C)(O)[C@H](O)CC/C(C)=C/CC[C@@]2(C)O` [SINUFLEXOLIDE] was tested. Which EC50 did it give?
**A.** 0.68 µg/mL (≈ 1.93 µM)

tested on: KB; test: Cytotoxicity against human KB cells after 3 days by MTT assay; assay type: functional; details: 72 h, read-out: ED50 (the source's name)

**Q.** For `C/C1=C\CC[C@@](C)(O)[C@H]2C[C@H](CC[C@](C)(O)[C@H](O)CC1)[C@@H](C)C(=O)O2` [DIHYDROSINUFLEXOLIDE], which EC50 is on record?
**A.** > 50 µg/mL

**Q.** With `C=C(C(=O)OC)[C@H]1CC[C@](C)(O)[C@H](O)CC/C(C)=C/CC[C@@](C)(O)[C@@H](O)C1` [SINUFLEXIBILIN] as the molecule, how does the EC50 read?
**A.** 1.73 µg/mL (≈ 4.5 µM)

**Q.** `C=C1C(=O)O[C@@H]2C[C@@H]1CC[C@](C)(O)[C@H](O)CC/C(C)=C/CC[C@@]2(C)O` [SINUFLEXOLIDE] was tested. Which EC50 did it give?
**A.** 0.46 µg/mL (≈ 1.31 µM)
